{
  "source": "patent US6303596A",
  "about": "“Use of taurolidine for treatment of leukemias” (priority 2000, dated 2001)",
  "key": {"Jurkat cells [1]": {"system": "Jurkat cells", "experiment": "trypan blue exclusion, Jurkat", "type": "cell-based, human", "details": "25 μg/ml taurolidine", "protocol": "(§1) FIGS. 9A and 9B depict cell viability and growth rates for Jurkat cell line following taurolidine treatment, in terms of % trypan blue negative cells and % cell number, respectively. Cells were treated with various concentrations of taurolidine for 4 hours in AIM-V+0.01% BCS. After aliquots were collected for LDH assay, the remainder of the culture was rinsed in HBSS and resuspended in RPMI+10% BCS without taurolidine. Counts of trypan blue-negative cells (FIG. 9A), and total cell number (FIG. 9B), were recorded daily thereafter (with the measurement at Day 1 being made immediately after the 4 hour taurolidine treatment). Conditions were: no treatment (open circles); 25 μg/ml taurolidine (closed circles); 50 μg/ml taurolidine (open squares); 100 μg/ml taurolidine (closed squares); and vehicle alone (closed triangles). Doubling times were determined under each condition, and expressed as a percentage of the rate of doubling of untreated cells. These values are located to the right of the growth curves in (FIG. 9B). […]\n(§2) HL-60 cells treated with 50 μl taurolidine. In these samples, LDH present in the culture medium was 8.3±2.3% of that released by completely lysed cells, compared with 2.3±0.8% measured in control cultures. […] After 4 hour treatment, cells were rinsed and returned to growth medium and monitored for viability and growth over the following 3 days. […]"}, "Jurkat cells [2]": {"system": "Jurkat cells", "experiment": "growth rate after taurolidine treatment, Jurkat", "type": "cell-based, human", "protocol": "as §1, §2"}, "MM6 cells": {"system": "MM6 cells", "experiment": "growth rate after taurolidine treatment, MM6", "type": "cell-based, human", "protocol": "FIG. 4A and FIG. 4B are graphs depicting cell viability and growth rates following taurolidine treatment as determined by assay procedures. MM6 cells were treated with taurolidine as described in FIG. 3. After aliquots were collected for the lactate dehydrogenase (LDH) assay, the remainder of the culture was rinsed in Hank's balanced salt solution (HBSS) and resuspended in RPMI+10% BCS without taurolidine. Counts of trypan blue-negative cells represented in FIG. 4A and total cell number represented in FIG. 4B were recorded daily thereafter (with the measurement at Day 1 being made immediately after the four hour taurolidine treatment). […]\nFIGS. 5A and 5B depict cell viability and growth rates for MM6 cell line following taurolidine treatment, in terms of % trypan blue negative cells and % cell number, respectively. […] Counts of trypan blue-negative cells (FIG. 5A), and total cell number (FIG. 5B), were recorded daily thereafter (with the measurement at Day 1 being made immediately after the 4 hour taurolidine treatment). […] Doubling times were determined under each condition, and expressed as a percentage of the rate of doubling of untreated cells. […]\nIn these experiments, integrity of cell membranes following taurolidine treatment was assessed by exclusion of trypan blue and by measuring the release of LDH in MM6, K-562, HL-60, and REH cells. […]"}, "K562 cells": {"system": "K562 cells", "experiment": "trypan blue exclusion, K562", "type": "cell-based, human", "details": "K562, 25 μg/ml taurolidine", "protocol": "(§3) FIGS. 6A and 6B depict cell viability and growth rates for K562 cell line following taurolidine treatment, in terms of % trypan blue negative cells and % cell number, respectively. Cells were treated with various concentrations of taurolidine for 4 hours in AIM-V+0.01% BCS. After aliquots were collected for LDH assay, the remainder of the culture was rinsed in HBSS and resuspended in RPMI+10% BCS without taurolidine. Counts of trypan blue-negative cells (FIG. 6A), and total cell number (FIG. 6B), were recorded daily thereafter (with the measurement at Day 1 being made immediately after the 4 hour taurolidine treatment). […] Doubling times were determined under each condition, and expressed as a percentage of the rate of doubling of untreated cells. […]\n(§4) In these experiments, integrity of cell membranes following taurolidine treatment was assessed by exclusion of trypan blue and by measuring the release of LDH in MM6, K-562, HL-60, and REH cells. […] A parallel aliquot of cells was lysed by three cycles of freeze/thaw and the quantity of LDH released was taken to be 100%. […]\n(§5) HL-60 cells treated with 50 μl taurolidine. In these samples, LDH present in the culture medium was 8.3±2.3% of that released by completely lysed cells, compared with 2.3±0.8% measured in control cultures. […]"}, "REH": {"system": "REH", "experiment": "growth rate after taurolidine treatment, REH", "type": "cell-based", "details": "Homo sapiens, 72 h, growth over three days, read-out: growth rate (% of control)", "protocol": "as §3, with “8A” for “6A”, “8B” for “6B”, “REH” for “K562”, “8A),” for “6A),”, “8B),” for “6B),”\nas §4, §5\n^b Growth rate was measured over three days following treatment."}},
  "data": [
    {"smiles": "O=S1(=O)CCN(CN2CCS(=O)(=O)NC2)CN1", "note": "[taurolidine, 4,4'-methylenebis(perhydro-1,2,4-thiadiazin 1,1-dioxide)]", "values": [
      {"measurement": "trypan blue staining after treatment", "setting": "Jurkat cells [1]", "result": "did not show an increase in trypan blue staining"},
      {"measurement": "sensitivity of cell growth among cell lines", "setting": "Jurkat cells [2]", "result": "least affected"},
      {"measurement": "growth rate after return to growth medium", "setting": "MM6 cells; MM6, 25 μg/ml taurolidine for 4 h", "result": "growth rates similar to that observed with untreated cells"},
      {"measurement": "growth after return to growth medium", "setting": "MM6 cells; MM6, 50 μg/ml taurolidine for 4 h", "result": "failed to grow"},
      {"measurement": "trypan blue staining after treatment", "setting": "K562 cells", "result": "did not show an increase in trypan blue staining"},
      {"measurement": "activity at 50 µg/mL", "setting": "REH; 50 μg/ml for 4 h", "result": 1, "unit": "%"},
      {"measurement": "activity at 100 µg/mL", "setting": "REH; 100 μg/ml for 4 h", "result": 18, "unit": "%"}
    ]}
  ]
}
